Values of other authors in US20090156647A1, “Method for maintaining physiological pH levels during intensive physical exercise” (IOVATE T. & P. INC., priority 2007, published 2009).

Conditions: about 1.5 g of HICA daily after intense exercise for 42 days

CC(C)CC(O)C(=O)O (centres unmarked) [HICA, 2-hydroxy-4-methylvaleric acid]
delayed onset muscular soreness (DOMS) experienced by subjects: little to no DOMS
total lean soft tissue mass: statistically significant increase
